# Test results from ChEMBL document CHEMBL5104178, “Nitroimidazopyrazinones with Oral Activity against Tuberculosis and Chagas Disease in Mouse Models of Infection” (J Med Chem, 2022).
# Assays:
# Mycobacterium avium = assay: Antimycobacterial activity against Mycobacterium avium ATCC 25291 assessed as bacterial growth inhibition incubated for 6 days under normoxic condition by resazurin microtiter assay; assay type: functional; conditions: ATCC 25291, 144 h, time 6 day
# [1] = system: Mycolicibacterium smegmatis; assay: Antimycobacterial activity against Mycobacterium smegmatis mc2155 ATCC 700084 assessed as bacterial growth inhibition incubated for 24 hrs under normoxic condition by resazurin microtiter assay; assay type: functional
# [2] = system: Mycobacterium tuberculosis; assay: Antimycobacterial activity against Mycobacterium tuberculosis H37Ra ATCC 25177 assessed as bacterial growth inhibition incubated for 6 days under normoxic condition by resazurin microtiter assay; assay type: functional; conditions: H37Ra ATCC 25177, 144 h, time 6 day
# [3] = system: Mycobacterium tuberculosis; assay: Antimycobacterial activity against Mycobacterium tuberculosis H37Rv ATCC 27294 assessed as bacterial growth inhibition incubated for 5 days under normoxic condition by resazurin microtiter assay; assay type: functional; conditions: H37Rv ATCC 27294, 120 h, time 5 day
# [4] = system: Mycobacterium tuberculosis; assay: Antimycobacterial activity against Mycobacterium tuberculosis H37Rv ATCC 27294 assessed as bacterial growth inhibition at 0.125 to 8 ug/ml incubated for 5 days under hypoxic condition by resazurin microtiter assay relative to control; assay type: functional; conditions: dose 0.125-8 µg/ml; time 5 day; at 0.125 to 8 µg/mL
# [5] = system: Mycobacterium tuberculosis; assay: Substrate activity at Mycobacterium tuberculosis Ddn expressed in Escherichia coli BL21 (DE3) assessed as oxidation of F420H2 by measuring Kcat/Km by spectrophotometric analysis
# [6] = system: Mycobacterium tuberculosis; assay: Substrate activity at Mycobacterium tuberculosis Ddn expressed in Escherichia coli BL21 (DE3) assessed as oxidation of F420H2 by measuring Kcat by spectrophotometric analysis
# [7] = system: Mycobacterium tuberculosis; assay: Substrate activity at Mycobacterium tuberculosis Ddn expressed in Escherichia coli BL21 (DE3) assessed as oxidation of F420H2 by measuring Km by spectrophotometric analysis
# [8] = system: Mycobacterium tuberculosis; assay: Antimycobacterial activity against Mycobacterium tuberculosis H37Rv ATCC 27294 assessed as bacterial growth inhibition at 4 to 32 ug/ml incubated for 5 days under hypoxic condition by resazurin microtiter assay relative to control; assay type: functional; conditions: dose 4-32 µg/ml; time 5 day
# [9] = system: Mycobacterium tuberculosis; assay: Antimycobacterial activity against Mycobacterium tuberculosis H37Rv ATCC 27294 assessed as bacterial growth inhibition incubated for 5 days under hypoxic condition by resazurin microtiter assay; assay type: functional; conditions: H37Rv ATCC 27294, 120 h, time 5 day
# [10] = Solubility of compound in PBS at 7.4 by LC-UV analysis; assay type: physicochemical; conditions: pH 7.4
# [11] = Solubility of compound in water by LC-UV analysis; assay type: physicochemical; conditions: water; read-out: solubility
# [12] = Plasma protein binding in mouse; assay type: ADME, cell-free; conditions: read-out: PPB (converted)
# [13] = Clearance in CD-1 mouse at 5 mg/kg, iv administered as DMSO/PEG400 formulation measured upto 24 hrs by LC-MS/MS analysis; assay type: ADME, organism-based; conditions: in vivo
# [14] = Volume of distribution at steady state in CD-1 mouse at 5 mg/kg, iv administered as DMSO/PEG400 formulation measured upto 24 hrs by LC-MS/MS analysis; assay type: ADME, organism-based; conditions: in vivo, read-out: Vdss
# [15] = AUC(0 to 8 hrs) in CD-1 mouse at 20 mg/kg, po administered as DMSO/PEG400 formulation measured upto 24 hrs by LC-MS/MS analysis; assay type: ADME, organism-based; parameters: dose 20 mg/kg, time < 24 hrs, route po; conditions: in vivo
# [16] = Half life in CD-1 mouse at 5 mg/kg, iv administered as DMSO/PEG400 formulation measured upto 24 hrs by LC-MS/MS analysis; assay type: ADME, organism-based; conditions: in vivo
# [17] = Plasma protein binding in human; assay type: ADME, cell-free; conditions: read-out: PPB (converted)
# [18] = Metabolic stability in human microsomes assessed as compound remaining measured after 2 hrs; assay type: ADME, Microsome; conditions: read-out: Stability
# [19] = Stability in human plasma assessed as compound remaining measured after 2 hrs; assay type: ADME, cell-free; conditions: read-out: Stability
# [20] = Oral bioavailability in CD-1 mouse at 20 mg/kg administered as DMSO/PEG400 formulation measured upto 24 hrs by LC-MS/MS analysis; assay type: ADME, organism-based; conditions: in vivo
# [21] = Cmax in CD-1 mouse at 20 mg/kg, po administered as DMSO/PEG400 formulation measured upto 24 hrs by LC-MS/MS analysis; assay type: ADME, organism-based; parameters: dose 20 mg/kg, time < 24 hrs, route po; conditions: in vivo
# [22] = Tmax in CD-1 mouse at 20 mg/kg, po administered as DMSO/PEG400 formulation measured upto 24 hrs by LC-MS/MS analysis; assay type: ADME, organism-based; conditions: in vivo
# [23] = Metabolic stability in mouse microsomes assessed as compound remaining measured after 2 hrs; assay type: ADME, Microsome; conditions: read-out: Stability
# Trypanosoma cruzi [24] = assay: Antitrypanosomal activity against Trypanosoma cruzi Tulahuen amastigotes infected in mouse 3T3 cells assessed as inhibition of parasite growth incubated for 48 hrs by […] staining based analysis; assay type: functional, organism-based
# [25] = Cytotoxicity against mouse 3T3 cells; assay type: toxicity, cell-based; conditions: NIH3T3 cells
# Trypanosoma cruzi [26] = assay: Antitrypanosomal activity against Trypanosoma cruzi Tulahuen amastigotes infected in mouse 3T3 cells assessed as reduction in parasite growth at Emax concentration incubated for 48 hrs by […] staining based analysis; assay type: functional; parameters: scale not given: the % may be the effect or the level left
# [27] = Selectivity index, ratio of CC50 for cytotoxicity against mouse 3T3 cells to IC50 for antitrypanosomal activity against Trypanosoma cruzi Tulahuen amastigotes infected in mouse 3T3 cells; assay type: toxicity, cell-based; conditions: read-out: Ratio CC50/IC50
SMILES,MIC (Mycobacterium avium) [µg/mL],MIC [1] [µg/mL],MIC [3] [µg/mL],kcat/Km [5] [M⁻¹ s⁻¹],kcat [6],Km [7] [µM],solubility [11] [µM],also measured
Cc1cn2cc([N+](=O)[O-])nc2c(=O)n1Cc1ccc(OC(F)(F)F)cc1,> 32,> 32,> 32,–,–,–,–,MIC [2]: 4 µg/mL
Cc1cccc(Cn2ccn3cc([N+](=O)[O-])nc3c2=O)c1,> 32,> 32,0.063,–,–,–,–,inhibition (INH) [4]: 70%; MIC [2]: ≤ 0.016 µg/mL
O=c1c2nc([N+](=O)[O-])cn2ccn1Cc1ccc(N2CCCCC2)cc1,–,–,–,773,1.7 10^-3/s,2.2,–,–
O=c1c2nc([N+](=O)[O-])cn2ccn1Cc1cncc(-c2ccc(OC(F)(F)F)cc2)c1,–,–,–,4470,1.2 10^-2/s,2.6,–,inhibition (INH) [8]: 82%
O=c1c2nc([N+](=O)[O-])cn2ccn1Cc1ccc(-c2cccc(OC(F)(F)F)c2)nc1,–,–,–,266,1.3 10^-3/s,5,–,–
O=C1c2nc([N+](=O)[O-])cn2CN1Cc1ccccc1,–,–,> 32,–,–,–,5.9,MIC [9]: > 32 µg/mL; solubility [10]: 5.9 µM
O=c1c2nc([N+](=O)[O-])cn2ccn1Cc1ccccc1,–,–,–,–,–,–,3.2,solubility [10]: 2.7 µM
O=c1c2nc([N+](=O)[O-])cn2ccn1Cc1cncc(-c2cccc(OC(F)(F)F)c2)c1,–,–,–,3190,1.4 10^-2/s,4.3,–,–
O=c1c2nc([N+](=O)[O-])cn2ccn1Cc1cccc(OC(F)(F)F)c1,> 32,> 32,–,70,3.1 10^-3/s,45,5.4,fraction unbound [12]: < 0.01; clearance [13]: 10.1 mL/min/kg; Vd [14]: 1.1 L/kg; AUC(0-t) at 24 h [15]: 15600 ng·h/mL; half-life [16]: 1.1 h; fraction unbound [17]: < 0.01; remaining at 2 h [18]: > 99%; remaining at 2 h [19]: 99%; bioavailability [20]: 73%; Cmax [21]: 2900 ng/mL; Tmax [22]: 3 h; remaining at 2 h [23]: 97%
CC[C@@H]([C@H](C)O)n1ncn(-c2ccc(N3CCN(c4ccc(OC[C@@H]5CO[C@@](Cn6cncn6)(c6ccc(F)cc6F)C5)cc4)CC3)cc2)c1=O [POSACONAZOLE],–,–,–,–,–,–,–,"IC50 (Trypanosoma cruzi [24]; NIH3T3, 48 h): 2 nM; IC90 (Trypanosoma cruzi [24]; NIH3T3, time 48 hrs): 4 nM; CC50 [25]: > 1000 nM; Activity (Trypanosoma cruzi [26]): 87%; selectivity ratio [27]: > 569"
